# Experimental data as given in patent publication US20070129371A1, “Novel ethylenediamine derivatives” (Daiichi Pharmaceutical Co., Ltd., priority 2002, published 2007).
# Structures can show the parent of a compound that is named as a salt.
# Target: T1, human FXa (Homo sapiens, UniProt P00742)
# T1 construct: purchased Enzyme Research Laboratories, Inc
# Test: Determination of human FXa-inhibiting effect (IC50 value)
# Format: biochemical
# Conditions: S-2222 chromogenic substrate, absorbance at 405 nm, Tris buffer pH 7.4, room temperature
# Description: A 5% DMSO solution (10 μl) of each test compound, the concentrations of which had been suitably set stepwise, and Tris buffer (100 mM Tris, 200 mM potassium chloride, 0.2% BSA, pH 7.4) (40 μl) and 0.0625 U/ml human FXa (Enzyme Research Laboratories, Inc., dissolved in and diluted with Tris buffer) (10 μl) were put in each of the wells of a 96-well microplate. A 750 μM aqueous solution (40 μl) of S-2222 (Chromogenix Co.) was added. Absorbance at 405 nm was measured for 10 minutes at room temperature to determine an increase in absorbance (ΔOD/min). As a control, Tris buffer was used in place of the test compound.
# The percent inhibition (%) calculated using the following equation at the final concentration of the test compound and the final concentration of the test compound were plotted on the ordinate and abscissa of logarithmic probability paper, respectively, to determine the 50% inhibition concentration (IC50 value) Percent inhibition (%)=[1−(ΔOD/min of test compound)÷(ΔOD/min of control)]×100
# T1 sequence (P00742 235-488 limits assumed): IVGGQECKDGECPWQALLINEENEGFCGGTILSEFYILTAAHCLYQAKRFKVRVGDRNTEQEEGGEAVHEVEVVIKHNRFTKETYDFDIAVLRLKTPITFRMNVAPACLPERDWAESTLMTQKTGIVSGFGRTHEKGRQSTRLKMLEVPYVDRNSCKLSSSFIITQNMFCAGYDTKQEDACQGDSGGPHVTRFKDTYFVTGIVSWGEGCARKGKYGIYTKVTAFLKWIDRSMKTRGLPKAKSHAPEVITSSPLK
# T1 sequence (P00742 41-179 partner limits assumed): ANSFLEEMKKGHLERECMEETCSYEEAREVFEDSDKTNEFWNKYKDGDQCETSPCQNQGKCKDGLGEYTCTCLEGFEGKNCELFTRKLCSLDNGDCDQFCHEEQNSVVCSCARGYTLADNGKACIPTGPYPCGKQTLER
row,IC50 [nM],Compound
1,2.4,"CN1CCc2nc(C(=O)N[C@@H](CNC(=O)C(=O)Nc3ccc(Cl)cn3)C(=O)N(C)C)sc2C1 [Example 26, N^1-(5-Chloropyridin-2-yl)-N^2-((2S)-3-(dimethylamino)-2-{[(5-methyl-4,5,6,7-tetrahydrothiazolo[5,4-c]pyridin-2-yl)carbonyl]amino}-3-oxopropyl)ethanediamide hydrochloride]"
2,2,"C[C@@H](NC(=O)C(=O)Nc1ccc(Cl)cn1)[C@H](NC(=O)c1nc2c(s1)CN(C)CC2)C(=O)N(C)C [Example 66, N^1-(5-Chloropyridin-2-yl)-N^2-((1R,2S)-3-(dimethylamino)-1-methyl-2-{[(5-methyl-4,5,6,7-tetrahydrothiazlo [5,4-c]pyridin-2-yl)carbonyl]amino}-3-oxopropyl)ethanediamide hydrochloride]"
3,1.5,"CN1CCc2nc(C(=O)N[C@@H](CNC(=O)C(=O)Nc3ccc(Br)cn3)C(=O)N(C)C)sc2C1 [Example 37, N^1-(5-Bromopyridin-2-yl)-N^2-((2S)-3-(dimethylamino)-2-{[(5-methyl-4,5,6,7-tetrahydrothiazolo[5,4-c]pyridine-2-yl)carbonyl]amino}-3-oxopropyl)ethanediamide hydrochloride]"
4,7.1,"CN1CCc2nc(C(=O)NC(CNC(=O)C(=O)Nc3ccc(Cl)cn3)C(=O)N3CCS(=O)(=O)CC3)sc2C1 (centres unmarked) [Example 2, N^1-(5-Chloropyridin-2-yl)-N^2-(3-(1,1-dioxothiomorpholin-4-yl)-2-{[(5-methyl-4,5,6,7-tetrahydrothiazolo[5,4-c]pyridin-2-yl)carbonyl]amino}-3-oxopropyl)ethanediamide hydrochloride]"
5,1.8,"CN1CCc2nc(C(=O)N[C@@H](CNC(=O)C(=O)Nc3ccc(Cl)cc3)c3cnco3)sc2C1 [Example 62, N^1-(4-Chlorophenyl)-N^2-[(2S)-2-{[(5-methyl-4,5,6,7-tetrahydrothiazolo[5,4-c]pyridin-2-yl)carbonyl]amino}-2-(1,3-oxazol-5-yl)ethyl]ethanediamide hydrochloride]"
6,1.3,"CN1CCc2nc(C(=O)N[C@@H](CNC(=O)C(=O)Nc3ccc(Cl)s3)C(=O)N(C)C)sc2C1 [Example 40, N^1-(5-Chlorothien-2-yl)-N^2-((2S)-3-(dimethylamino)-2-{[(5-methyl-4,5,6,7-tetrahydrothiazolo[5,4-c]pyridin-2-yl)carbonyl]amino}-3-oxopropyl)ethanediamide hydrochloride]"
7,0.86,"CN1CCc2nc(C(=O)N[C@@H](CNC(=O)C(=O)Nc3ccc(Cl)cc3)C(=O)N(C)C)sc2C1 [Example 39, N^1-(4-Chlorophenyl)-N^2-((2S)-3-(dimethylamino)-2-{[(5-methyl-4,5,6,7-tetrahydrothiazolo[5,4-c]pyridin-2-yl)carbonyl]amino}-3-oxopropyl)ethanediamide hydrochloride]"
8,0.81,"CN1CCc2nc(C(=O)N[C@@H](CNC(=O)C(=O)Nc3ccc(Br)cc3)C(=O)N(C)C)sc2C1 [Example 38, N^1-(4-Bromophenyl)-N^2-((2S)-3-(dimethylamino)-2-{[(5-methyl-4,5,6,7-tetrahydrothiazolo[5,4-c]pyridin-2-yl)carbonyl]amino}-3-oxopropyl)ethanediamide hydrochloride]"
